In patent publication US20240368181A1, “QUINOXALINE DERIVATIVES AND USES THEREOF” (Black Diamond Therapeutics, Inc., priority 2021, published 2024):

Experiments:
Type in all cases: cell-based
[1] = test system: UM-UC-14 (FGFR3-S249C) cells; experiment: cell proliferation assay (CellTiterGlo), UM-UC-14 cells; details: UMUC14, 72 h
Text: (§1) In some embodiments, the biological assay assess the ability of the compounds to inhibit cell proliferation.
(§2) In some embodiments, cells (e.g., SNU-16 (FGFR2-amplification) cells) may be suspended and dispensed in plates. In some embodiments, cells (e.g., UM-UC-14 (FGFR3-S249C) cells) may be suspended and dispensed in plates. In some embodiments, cells (e.g., DMS-114 (FGFR1 overexpression) cells) may by suspended and dispensed in plates. In some embodiments, cells (e.g., RT-112 (FGFR3-Tacc3 fusion) cells) may be suspended and dispensed in plates. In some embodiments, to determine the effect of the compounds of the present disclosure on cell proliferation, cells (e.g., SNU-16, UM-UC-14, DMS-114 and […] cells) may be incubated in the presence of vehicle control (e.g., DMSO) or a compound of the present disclosure at varying concentrations and the inhibition of cell growth may be determined by luminescent quantification (e.g., of intracellular ATP content using CellTiterGlo), according to the manufacturers protocol. In some embodiments, to determine the IC50 values, the vehicle-treated cells were normalized as viable cells and the growth was analyzed using a software (e.g., the CDD Vault software (Collaborative Drug Discovery, Burlingame, CA)).

[2] = test system: DMS-114 (FGFR1 overexpression) cells; experiment: cell proliferation assay (CellTiterGlo), DMS-114 cells; details: Homo sapiens, DMS-114, 72 h
Text: as §1, §2

[3] = test system: RT-112 (FGFR3-Tacc3 fusion) cells; experiment: cell proliferation assay (CellTiterGlo), RT-112 cells; details: Homo sapiens, RT-112, RT112 cells, 72 hours
Text: as §1, §2

[4] = test system: SNU-16 (FGFR2-amplification) cells; experiment: cell proliferation assay (CellTiterGlo), SNU-16 cells; details: Homo sapiens, 72 hours
Text: as §1, §2

SMILES	IC50 [1] [nM]	IC50 [2] [nM]	IC50 [3] [nM]	IC50 [4] [nM]
Cc1nc2ccc(Oc3ccc4ncc(-c5cnn(CC6(O)CC6)c5)nc4c3C3CCOC3)c(F)c2[nH]1 (stereo not shown) [Compound 70]	20 to 100	20 to 100	20 to 100	
Cc1nc2ccc(Oc3ccc4ncc(-c5cnn(CC6CC(F)(F)C6)c5)nc4c3C3=CCOC3(C)C)cc2[nH]1 [Compound 71]	20 to 100	100 to 400	100 to 400	
Cc1nc2ccc(Oc3ccc4ncc(-c5cnn(CC6CC(F)(F)C6)c5)nc4c3C3CCOC3)c(F)c2[nH]1 (stereo not shown) [Compound 72]	20 to 100	20 to 100	< 20	
Cc1nc2ccc(Oc3ccc4ncc(-c5cnn(C6CC7(C6)CC(F)(F)C7)c5)nc4c3Cl)cc2[nH]1 [Compound 101]	100 to 400	≥ 400	100 to 400	
Cc1nc2ccc(Oc3ccc4ncc(-c5cnn(CC6(O)CC(O)C6)c5)nc4c3Cl)c(F)c2[nH]1 (stereo not shown) [Compound 102]	< 20	20 to 100	< 20	
Cc1nc2ccc(Oc3ccc4ncc(-c5cnn(CC6(O)CC6)c5)nc4c3-n3ccnc3)c(F)c2[nH]1 [Compound 103]	100 to 400	≥ 400	100 to 400	
Cc1nc2ccc(Oc3ccc4ncc(-c5cnn([C@@H](C)C6CCC(F)(F)CC6)c5)nc4c3Cl)cc2[nH]1 [Compound 104]	20 to 100	≥ 400	20 to 100	
Cc1nc2ccc(Oc3ccc4ncc(-c5cnn([C@H](C)C6CCC(F)(F)CC6)c5)nc4c3Cl)cc2[nH]1 [Compound 105]	20 to 100	≥ 400	20 to 100	
COC1CCN(C(=O)Cn2cc(-c3cnc4ccc(Oc5ccc6nc(C)[nH]c6c5)c(Cl)c4n3)cn2)CC1 [Compound 113]	20 to 100	≥ 400	20 to 100	
CC(=O)N1CCN(C(=O)Cn2cc(-c3cnc4ccc(Oc5ccc6nc(C)[nH]c6c5)c(Cl)c4n3)cn2)CC1 [Compound 114]	≥ 400	≥ 400	100 to 400	
Cc1nc2ccc(Oc3ccc4ncc(-c5cnn(CC6CCS(=O)(=O)CC6)c5)nc4c3S(C)(=O)=O)cc2[nH]1 [Compound 116]	100 to 400	≥ 400	≥ 400	
Cc1nc2ccc(Oc3ccc4ncc(-c5cnn(CC6CC(F)(F)C6)c5)nc4c3N3CCCC3=O)cc2[nH]1 [Compound 117]	≥ 400	≥ 400	≥ 400	
Cc1nc2ccc(Oc3ccc4ncc(-c5cnn(C[C@H](C)O)c5)nc4c3Cl)c(F)c2[nH]1 [Compound 118]	< 20	100 to 400	< 20	
Cc1nc2ccc(Oc3ccc4ncc(-c5cnn(CC6CC(F)(F)C6)c5)nc4c3NC(=O)CCCCl)cc2[nH]1 [Compound 120]	100 to 400	≥ 400	100 to 400	
Cc1nc2ccc(Oc3ccc4ncc(-c5cnn([C@@H](C)CO)c5)nc4c3Cl)cc2[nH]1 [Compound 125]	20 to 100	≥ 400	20 to 100	
Cc1nc2ccc(Oc3ccc4ncc(-c5cnn(CC6(O)CC6)c5)nc4c3I)cc2[nH]1 [Compound 129]	20 to 100	≥ 400	20 to 100	
Cc1nc2ccc(Oc3ccc4ncc(-c5cnn(C[C@@H](C)O)c5)nc4c3Cl)cc2[nH]1 [Compound 132]			20 to 100	20 to 100
Cc1nc2ccc(Oc3ccc4ncc(-c5cnn(CC6CC(F)(F)C6)c5)nc4c3-n3c(C)ccc3C)cc2[nH]1 [Compound 133]			100 to 400	≥ 400
Cc1nc2ccc(Oc3ccc4ncc(-c5cnn(CC6CC(F)(F)C6)c5)nc4c3C3CCOC3)cc2[nH]1 (stereo not shown) [Compound 134]			20 to 100	20 to 100
Cc1nc2ccc(Oc3ccc4ncc(-c5cnn(C6CCN(C)C7(CC7)C6)c5)nc4c3Cl)c(F)c2[nH]1 (stereo not shown) [Compound 135]			< 20	< 20
Cc1nc2ccc(Oc3ccc4ncc(-c5cnn(C(C)(C)CO)c5)nc4c3Cl)c(F)c2[nH]1 [Compound 142]	< 20	100 to 400	< 20	
Cc1nc2ccc(Oc3ccc4ncc(-c5cnn(CC(=O)N6CCOCC6)c5)nc4c3Cl)c(F)c2[nH]1 [Compound 155]	< 20	20 to 100		
Cc1nc2ccc(Oc3ccc4ncc(-c5cnn(C6CC(=O)C6)c5)nc4c3Cl)c(F)c2[nH]1 [Compound 156]	< 20	20 to 100		
Cc1nc2cc(Oc3ccc4ncc(-c5cnn(CC6CC(F)(F)C6)c5)nc4c3C(F)F)ccc2[nH]1 [Compound 157]	20 to 100	100 to 400		
Cc1nc2cc(Oc3ccc4ncc(-c5cnn(CC6CC(F)(F)C6)c5)nc4c3C=O)ccc2[nH]1 [Compound 158]	≥ 400	≥ 400		

SMILES	IC50 [1] [nM]	IC50 [2] [nM]	IC50 [3] [nM]	IC50 [4] [nM]
Cc1nc2ccc(Oc3ccc4ncc(-c5cnn(CC6CC(F)(F)C6)c5)nc4c3N)cc2[nH]1 [Compound 159]	≥ 400	≥ 400		
Cc1nc2ccc(Oc3ccc4ncc(-c5cnn(C(C)(C)C6CC(O)C6)c5)nc4c3Cl)cc2[nH]1 (stereo not shown) [Compound 160]	20 to 100	100 to 400		
Cc1nc2ccc(Oc3ccc4ncc(-c5cnn(C6CC7(CC(O)C7)C6)c5)nc4c3Cl)cc2[nH]1 (stereo not shown) [Compound 161]	20 to 100	≥ 400		
Cc1nc2ccc(Oc3ccc4ncc(-c5cnn(CC6(O)CC6)c5)nc4c3Cl)c(F)c2[nH]1 [Compound 162]	20 to 100	20 to 100		
Cc1nc2ccc(Oc3ccc4ncc(-c5cnn(C6CCN(C)C7(CC7)C6)c5)nc4c3Cl)cc2[nH]1 (stereo not shown) [Compound 163]	20 to 100	100 to 400		
Cc1nc2ccc(Oc3ccc4ncc(-c5cnn(CC6(O)CC6)c5)nc4c3C3=CCCC3)cc2[nH]1 [Compound 164]	20 to 100	20 to 100		
Cc1nc2ccc(Oc3ccc4ncc(-c5cnn(C6CC7(CC(=O)C7)C6)c5)nc4c3Cl)cc2[nH]1 [Compound 165]	20 to 100	≥ 400		
Cc1nc2ccc(Oc3ccc4ncc(-c5cnn(C[C@H]6C[C@](C)(O)C6)c5)nc4c3Cl)c(F)c2[nH]1 [Compound 166]	20 to 100	100 to 400		
Cc1nc2ccc(Oc3ccc4ncc(-c5cnn(C[C@H]6C[C@@](C)(O)C6)c5)nc4c3Cl)c(F)c2[nH]1 [Compound 167]	< 20	20 to 100		
Cc1nc2ccc(Oc3ccc4ncc(-c5cnn([C@H]6C[C@@](C)(O)C6)c5)nc4c3Cl)cc2[nH]1 [Compound 168]	20 to 100	≥ 400		
Cc1nc2ncc(Oc3ccc4ncc(-c5cnn(C6CCC(F)(F)CC6)c5)nc4c3Cl)cc2[nH]1 [Compound 169]	≥ 400	≥ 400		
Cc1nc2ccc(Oc3ccc4ncc(-c5cnn(C6(C)CC=C(F)CC6)c5)nc4c3Cl)cc2[nH]1 (stereo not shown) [Compound 170]	100 to 400	≥ 400		
Cc1nc2ccc(Oc3ccc4ncc(-c5cnn(C6(C)CCC(F)(F)CC6)c5)nc4c3Cl)cc2[nH]1 [Compound 171]	100 to 400	≥ 400		
Cc1nc2ccc(Oc3ccc4ncc(-c5cnn([C@H]6C[C@H](O)C6)c5)nc4c3Cl)cc2[nH]1 [Compound 172]	100 to 400	≥ 400		
Cc1nc2ccc(Oc3ccc4ncc(-c5cnn([C@H]6C[C@@H](O)C6)c5)nc4c3Cl)cc2[nH]1 [Compound 173]	20 to 100	100 to 400		
Cc1nc2ccc(Oc3ccc4ncc(-c5cnn(CC(=O)N6CCC(F)(F)C6)c5)nc4c3Cl)c(F)c2[nH]1 [Compound 174]	< 20	100 to 400		< 20
Cc1nc2ccc(Oc3ccc4ncc(-c5cnn([C@H]6C[C@](C)(O)C6)c5)nc4c3Cl)cc2[nH]1 [Compound 175]	20 to 100	100 to 400		< 20
Cc1nc2ccc(Oc3ccc4ncc(-c5cnn(C6CCNC7(CC7)C6)c5)nc4c3Cl)cc2[nH]1 (stereo not shown) [Compound 176]	< 20	100 to 400		100 to 400
Cc1nc2ccc(Oc3ccc4ncc(-c5cnn(C6CCC(F)(F)CC6)c5)nc4c3Cl)nc2[nH]1 [Compound 177]	≥ 400	≥ 400		≥ 400
Cc1nc2ccc(Oc3ccc4ncc(-c5cnn([C@H]6C[C@H](C(F)(F)F)C6)c5)nc4c3Cl)cc2[nH]1 [Compound 178]	≥ 400	≥ 400		20 to 100
Cc1nc2ccc(Oc3ccc4ncc(-c5cnn(C[C@H]6C[C@@](C)(O)C6)c5)nc4c3Cl)cc2[nH]1 [Compound 180]	20 to 100	≥ 400		20 to 100
Cc1nc2ccc(Oc3ccc4ncc(-c5cnn(C[C@H]6C[C@](C)(O)C6)c5)nc4c3Cl)cc2[nH]1 [Compound 181]	20 to 100	≥ 400		< 20
Cc1nc2ccc(Oc3ccc4ncc(-c5cnn(C(C)C6CC(F)(F)C6)c5)nc4c3Cl)cc2[nH]1 (stereo not shown) [Compound 182]	20 to 100	≥ 400		20 to 100
Cc1nc2ccc(Oc3ccc4ncc(-c5cnn(C6CCN(C(=O)N(C)C)CC6)c5)nc4c3Cl)cc2[nH]1 [Compound 261]	< 20	20 to 100		< 20
